From patent US9006205B2, “Antisense oligonucleotides against neutral sphingomyelinase and neutral sphingomyelinase inhibitor GW4869 for degenerative neurological disorders” (Rush University Medical Center, priority 2011, dated 2015)
Each block holds one molecule with its values, some of them ahead of it.

What was measured:
primary human neurons [1] = assay: LDH release from neurons in astrocyte-neuron trans-well; format: cell-based
Protocol: (§1) Primary human astrocytes were grown to confluency on inserts. After 24 h of stimulation by the combination of Aβ (1 μM) and IL-Iβ (10 ng/ml), inserts were washed thrice with HBSS and then placed onto the wells containing primary human neurons. Therefore, in this trans-well model, although neurons and astrocytes face each other, they are separable and the effect of soluble factors released from activated astrocytes on neurons can be studied allowing analysis of neuronal and glial populations separately.
The activity of lactate dehydrogenase (LDH) was measured using the direct spectrophotometric assay using an assay kit from Sigma.
(§2) Primary human neurons were incubated with antisense (ASO) and scrambled oligonucleotides (ScO) against N-SMase (A) and A-SMase (FIG. 2B). After 48 h, neurons were analyzed for protein expression of N-SMase and A-SMase. In FIG. 2C, primary human astrocytes seeded in inserts were stimulated by the combination of Aβ and IL-1β as described above. […] After 6 h of treatment with activated astrocytes, apoptotic events in neurons were detected by TUNEL. In FIG. 2D, TUNEL-positive cells were counted manually in four different images of each of three coverslips by three individuals blinded to the experiment. In FIG. 2E, after 18 h of stimulation, cell viability was examined by the metabolism of MTT and the release of LDH. […] Values obtained from the control group served as 100%, and data obtained in other groups were calculated as percent of control accordingly. […]
In FIGS. 3A-3E, primary human astrocytes seeded in inserts were stimulated by the combination of Aβ and IL-Iβ as described above. […] In FIG. 3A, after 1 h, activity of N-SMase was measured in total cell extracts of neurons as described above. […] Values obtained from the control group served as 100%, and data obtained in other groups were calculated as percent of control accordingly. […] Primary human neurons were treated with 25 μM DETA-NONOate (a NO donor) and at different time points of treatment, activities of N-SMase (FIG. 3D) and A-SMase (FIG. 3E) were monitored. ^ap<0.001 vs control (0 h).

primary human neurons [2] = assay: MTT metabolism of neurons in astrocyte-neuron trans-well; format: cell-based
Protocol: as §1
Mitochondrial activity was measured with the 3-(4,5-dimethylthiazol-2-yl)-2,5-diphenyltetrazolium bromide (MTT) assay (Sigma). The cells were grown on 24-well culture plates with 500 μl of medium and treated with various reagents according to the experimental design. At the end of the treatment period, 300 μl of culture medium were removed from each well, and 20 μl of MTT solution (5 mg/ml) were added and incubated for 1 h.
as §2, with “experiment.” for “experiment. In FIG. 2E, after 18 h of stimulation, cell viability was examined by the metabolism of MTT and the release of LDH.”
In FIGS. 3A-3E, primary human astrocytes seeded in inserts were stimulated by the combination of Aβ and IL-Iβ as described above. […] In FIG. 3A, after 1 h, activity of N-SMase was measured in total cell extracts of neurons as described above. […] Values obtained from the control group served as 100%, and data obtained in other groups were calculated as percent of control accordingly.

iNOS, GFAP and CD11b = assay: Immunofluorescence of iNOS, GFAP and CD11b in the cortex of Aβ-microinjected mice; format: in vivo, C57/BL6 mice; details: 1 μg oligonucleotide 24 h before Aβ; at both 6 h and 24 h of microinjection
Protocol: […], mice were perfused with 4% paraformaldehyde and their brains were processed for immunohistochemical studies. For double labeling of GFAP with iNOS, sections (6 μm) were incubated with polyclonal anti-GFAP (GFAP: 1000 dilution; Calbiochem) and anti-iNOS (iNOS: 1000 dilution; Calbiochem) for 24 h at 4° C. After three washes in PBST (15 min each), slides were further incubated with Cy5 and Cy2 (Jackson ImmunoResearch Laboratories, Inc.) secondary antibodies for 2 h at room temperature. For negative controls, a set of tissue sections was incubated under similar conditions without the primary antibodies. The samples were mounted and observed under a Bio-Rad MRC1024ES confocal laser scanning microscope.
After 6 h of Aβ microinjection, mice were perfused and double immunofluorescence for GFAP (green) and iNOS (red) (FIG. 8A) and CD 11b (green) and iNOS (red) (FIG. 8B) was performed.

A-SMase = A-SMase activity in vivo in the cortex after microinjection; parameters: species or system C57/BL6 mice; details: pre-microinjection of 1 μg oligonucleotide 24 h before 1 μg fibrillar Aβ1-42
Protocol: (§3) Activities of SMase(s) were assayed as described by. Briefly, after treatment, the cells were washed with PBS, harvested in PBS, divided into two halves, and centrifuged. The fraction for N-SMase was resuspended in buffer A (100 mM Tris-HCl, pH 7.4, 0.1% Triton X-100, 1 mM EDTA, and protease inhibitors), and the cell suspension was sonicated and centrifuged at 500×g at 4° C. for 5 min. The supernatant was used as the enzyme source for N-SMase. The reaction mixture contained enzyme preparation in buffer A containing 5 nmol of [^14C] sphingomyelin, 5 nmol of phosphatidylserine, 5 mM dithiothreitol, and 5 mM MgC¾ in a final volume of 100 μl. Similarly, the fraction for A-SMase was resuspended in buffer B (100 mM sodium acetate, pH 5.0, 0.1% Triton X-100, and protease inhibitors). The cell suspension was sonicated and centrifuged. The supernatant was used as the source of A-SMase. The activity of A-SMase was measured in a 100-μl reaction mixture consisting of the enzyme preparation in buffer B and 5 nmol of [^14C] sphingomyelin. The enzyme reaction was initiated by the addition of 50 μl of substrate and stopped by the addition of 1.5 ml of chloroform:methanol (2:1, v/v) and 0.2 ml of water. After vortexing and phase separation, the aqueous phase was removed for counting.
(§4) Control mice received saline injection. At indicated time points, cortex was dissected out and divided into two halves—one half for measuring activities of N-SMase (FIG. 7B) and A-SMase (FIG. 7C) and the other for assaying ceramide (FIG. 7D). Control (saline—6 h) group served as 100%, and data from other groups were expressed as percentage of control. Results are mean+SD of five different mice (n=5). ^ap<0.05 vs saline—6 h.

[3] = tested on: neurons (NeuN-positive cells); assay: TUNEL/NeuN neuronal apoptosis in vivo in the cortex of Aβ-microinjected mice; details: 1 μg oligonucleotide 24 h before Aβ; 24 h after final microinjection
N-SMase [4] = assay: N-SMase activity in vivo in the cortex after microinjection; parameters: species or system C57/BL6 mice; details: pre-microinjection of 1 μg oligonucleotide 24 h before 1 μg fibrillar Aβ1-42
Protocol: as §3, §4

N-SMase [5] = biological target: T1, N-SMase (Homo sapiens, UniProt Q9NY59); assay: Assay of N-SMase activity in primary human neurons; format: cell-based
T1 construct: endogenous in cells; host or cells: primary human neurons
T1 sequence (Q9NY59 1-655): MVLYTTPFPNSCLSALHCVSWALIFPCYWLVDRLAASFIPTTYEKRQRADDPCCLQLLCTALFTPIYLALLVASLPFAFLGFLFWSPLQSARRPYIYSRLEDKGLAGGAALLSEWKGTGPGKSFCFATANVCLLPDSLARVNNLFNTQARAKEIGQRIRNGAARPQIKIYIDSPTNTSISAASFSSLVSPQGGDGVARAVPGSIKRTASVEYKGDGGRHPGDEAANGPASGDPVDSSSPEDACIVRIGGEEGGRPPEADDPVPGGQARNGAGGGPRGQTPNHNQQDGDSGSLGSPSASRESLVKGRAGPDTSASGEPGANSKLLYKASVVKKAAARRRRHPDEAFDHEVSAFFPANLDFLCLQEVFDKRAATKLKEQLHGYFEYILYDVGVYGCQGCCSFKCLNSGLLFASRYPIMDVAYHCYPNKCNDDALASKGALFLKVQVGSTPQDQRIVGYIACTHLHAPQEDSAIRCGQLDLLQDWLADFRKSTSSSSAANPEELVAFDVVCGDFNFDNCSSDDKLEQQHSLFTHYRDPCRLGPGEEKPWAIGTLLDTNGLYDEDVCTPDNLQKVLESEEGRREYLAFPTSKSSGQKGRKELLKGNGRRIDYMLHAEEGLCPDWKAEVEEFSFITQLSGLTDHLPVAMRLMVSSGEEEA
Protocol: as §3
In FIGS. 3A-3E, primary human astrocytes seeded in inserts were stimulated by the combination of Aβ and IL-Iβ as described above. After 24 h, media were removed and inserts were washed and placed on neurons that were pretreated with PTIO for 30 min. In FIG. 3A, after 1 h, activity of N-SMase was measured in total cell extracts of neurons as described above. After 18 h, neuronal viability was examined by the metabolism of MTT (FIG. 3B) and the release of LDH (FIG. 3C). Values obtained from the control group served as 100%, and data obtained in other groups were calculated as percent of control accordingly. Results are mean+S.D. of three different experiments. ^ap<0.001 vs control; ^bp<0.001 vs activated astrocytes. Primary human neurons were treated with 25 μM DETA-NONOate (a NO donor) and at different time points of treatment, activities of N-SMase (FIG. 3D) and A-SMase (FIG. 3E) were monitored. ^ap<0.001 vs control (0 h).

primary human astroglia = assay: NO synthesis (nitrite, Griess reagent) in primary human astroglia; format: cell-based; details: astroglia preincubated 30 min with different concentrations of chemical inhibitor; nitrite after 24 h
Protocol: Synthesis of NO was determined by assay of culture supernatants for nitrite, a stable reaction product of NO with molecular oxygen, using Griess reagent as described.
After 24 h of stimulation, the concentration of nitrite was measured in supernatants (FIG. 4A) by Griess reagent. […] Cells were treated with ASO/ScO for 40 h followed by stimulation with the combination of fibrillar Aβ and IL-Iβ as above. After 6 h, the expression of iNOS mRNA was analyzed by both semi-quantitative RT-PCR (C) and quantitative real-time PCR (FIG. 4D). The expression of TNF-a, IL-6 and IL-Iβ mRNAs were analyzed by semi-quantitative RT-PCR (FIG. 4E). Results are mean±SD of three different experiments. ^ap<0.001 vs control; ^bp<0.001 vs (Aβ+IL-Iβ).

NF-κB = assay: EMSA of NF-κB DNA-binding activity in primary human astroglia; format: cell-based; details: chemical inhibitor, different concentrations, 30 min preincubation; 1 h of stimulation
primary human astrocytes = assay: GFAP and iNOS double-labeling of primary human astrocytes stimulated with Aβ peptides; format: cell-based; details: peptide stimulation for 24 h
Protocol: In FIG. 5A, primary astrocytes were stimulated with fibrillar Aβ1-42, oligomeric Aβ1-42 and reverse peptide Aβ42-1 for 24 h followed by double-labeling of GFAP and iNOS. In FIG. 5B, primary human astrocytes seeded in inserts were stimulated with a combination of I μM of oligomeric Aβ1-42 and 10 ng/ml of IL-Iβ in serum free media. […] After 6 h, neuronal apoptosis was monitored by TUNEL. In FIG. 5C, TUNEL-positive cells were counted manually in four different images of each of three coverslips by three individuals blinded to the experiment. Values obtained from the control group (1) served as 100%, and data obtained from other three groups i.e. the oligomeric Aβ-activated astrocytes (OAA) group (2), the ASO-OAA group (3), and the ScO-OAA group (4) was calculated as percent of control accordingly. Results are mean+S.D. of three different experiments. ^ap<0.001 vs control; ^bp<0.001 vs OAA.

[6] = neurons pretreated with oligonucleotide, 18 h of stimulation
[7] = neurons pretreated with PTIO for 30 min, after 18 h

Molecule: 5′- CACGCGTCCGACGCCGCACGA -3′ (DNA, all phosphorothioate, methylation of C not given here) [ScO against N-SMase, ID; NO.: 13]
LDH release from neurons (primary human neurons [1]; [6]): showed no effect | activated astroglia-mediated loss of MTT metabolism (primary human neurons [2]; [6]): showed no effect

Molecule: 5′-CACGCGTCCGACGCCGCACGA-3′ (DNA CACGCGTCCGACGCCGCACGA; chemistry not given here) [mN-SMase ScO]
expression of iNOS, GFAP and CD11b in vivo in the cortex of Aβ-microinjected mice (iNOS, GFAP and CD11b): had no effect | activity of A-SMase in fibrillar Aβ-microinjected cortex (A-SMase): did not influence | Aβ-induced apoptotic death in vivo in the cortex (TUNEL/NeuN) [3]: did not ameliorate

Molecule: 5′-CAGCGAGCCGGTCCACCAGCC-3′ (antisense CAGCGAGCCGGTCCACCAGCC; chemistry not given here) [mN-SMase ASO, ID; NO.: 16]
expression of iNOS, GFAP and CD11b in vivo in the cortex of Aβ-microinjected mice (iNOS, GFAP and CD11b): dramatically reduced | activity of A-SMase in fibrillar Aβ-microinjected cortex (A-SMase): did not influence | Aβ-induced apoptotic death in vivo in the cortex (TUNEL/NeuN) [3]: blocked | Aβ1-42-induced activation of N-SMase in vivo in the cortex (N-SMase [4]): capable of suppressing

activation of N-SMase by NO donor alone (N-SMase [5]; primary human neurons, 25 μM, different time points): markedly induced
Molecule: NCCN(CCN)/[N+]([O-])=N/O [DETA-NONOate]

(Aβ+IL-1β)-induced DNA-binding activity of NF-κB (NF-κB): markedly suppressed | activity of N-SMase (N-SMase [5]; activated astroglia-insulted human neurons, chemical inhibitors): strongly suppressed
Molecule: O=C(/C=C/c1ccc(/C=C/C(=O)Nc2ccc(C3=NCCN3)cc2)cc1)Nc1ccc(C2=NCCN2)cc1 [GW4869]
(Aβ+IL-1β)-induced production of NO (primary human astroglia): markedly suppressed

ability of activated astrocytes to induce the activation of N-SMase (N-SMase [5]; neurons pretreated with PTIO for 30 min, measured after 1 h): reduced the ability
Molecule: CC1(C)N([O])C(c2ccccc2)=[N+]([O-])C1(C)C [PTIO]
ability of activated astrocytes to increase the release of LDH (primary human neurons [1]; [7]): reduced the ability | ability of activated astrocytes to decrease MTT metabolism (primary human neurons [2]; [7]): reduced the ability

Molecule: oligomeric Aβ: Aβ1-42 prepared after incubation at 37° C. for 2 days
astroglial iNOS protein and GFAP (primary human astrocytes): also induced iNOS and upregulated GFAP
